7 molecules from US11013235B2 (priority 2015, dated 2021) can be followed below.

What all share (format): in vivo
The test system of test [1] is Rhizoctonia solani. In words: Control of Rhizoctonia solani disease in tobacco (Rs-Nt). The following applies: 1 μM spraying every 24 hours for one week, water control 87.
The test system of test [2] is Botrytis cinerea. Nature of the test: Control of Botrytis cinerea disease in tomato (Bc-SI). The following applies: 1 μM spraying every 24 hours for one week, water control 7.4. Summed up: (§1)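 Inoculated plants received a daily 1 μM compound spray for seven days. Outcomes were plant mortality for Nocardia, leaves with symptoms (%) for Alternaria, and measured lesion diameter for Botrytis, relative to water-treated plants.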

In test [3] the test system is Nocardia sp. Nature of the test: Control of Nocardia sp disease in tobacco (N-Nt). The following applies: 1 μM spraying every 24 hours for one week, water control 58. An outline of the steps: as §1
For test [4], the system named is Botrytis cinerea. Nature of the test: Control of Botrytis cinerea disease in Arabidopsis (Bc-At). The following applies: 1 μM spraying every 24 hours for one week, water control 8.7. Summed up: as §1
In test [5] the test system is Meloidogyne incognita. In words: Nematode control, nodules per plant: Meloidogyne incognita. Conditions: 1 μM foliar application every 5 days, evaluation 35 days after, control 34. Summed up:
(§2)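 Compounds in ethanol, diluted in water to 1 μM, sprayed on leaves only every 5 days. Ten plants per treatment; nodules per plant counted at 35 days.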

Test [6] concerns Candidatus 'Liberibacter asiaticus'. Conditions: spraying every 15 days, 12 months after treatment, Citrus sinensis with HLB.
Test [7] has as its system Pratylenchus coffeae. In words: Nematode control, nodules per plant: Pratylenchus coffeae. Conditions: 1 μM foliar application every 5 days, evaluation 35 days after, control 42. An outline of the steps: as §2
Test [8] relates to Rhizoctonia solani. In words: Control of Rhizoctonia solani disease in tomato (Rs-SI). Conditions: 1 μM spraying every 24 hours for one week, water control 96.
For test [9], the system named is Botrytis cinerea. In words: Control of Botrytis cinerea disease in tobacco (Bc-Nt). Conditions: 1 μM spraying every 24 hours for one week, water control 6.7. Summed up:
as §1

The subject of test [10] is Alternaria solani. In words: Control of Alternaria solani disease in tomato (As-SI). The following applies: 1 μM spraying every 24 hours for one week, water control 68. Summed up:
as §1

Test [11] relates to Phytophthora parasitica. Nature of the test: Control of Phytophthora parasitica disease in tobacco (Pp-Nt). The following applies: 1 μM spraying every 24 hours for one week, water control 91.
In test [12] the test system is Candidatus 'Liberibacter asiaticus'. Conditions: 1 μM spray, during 6 months, diseased citrus plants.
In test [13] the test system is Radopholus similis. In words: Nematode control, nodules per plant: Radopholus similis. The following applies: 1 μM foliar application every 5 days, evaluation 35 days after, control 45. Summed up:
as §2

Read-outs that look alike come from different tables or passages of the source.

Regarding `O=C(CCc1cc2cc3c(-c4ccccc4)coc3cc2oc1=O)NCC(O)CO` (stereo not drawn) [IB, N-(2,3-dihydroxypropyl)-3-{2-oxo-6-phenyl-2H-furo[3,2-g]chromen-3-yl}propanamide], the “Rs-Nt: percentage of mortality” value in test [1] is 3%. Moreover, the “Bc-SI: mean of the diameter of the lesion” value (“Bc-SI: mean” for short) in test [2] came to 1.6 mm. In test [3], the “N-Nt: percentage of mortality” value came to 1%. Besides, in test [4], the “Bc-At: mean of the diameter of the lesion” value (“Bc-At: mean” below) turned out to be 1.1 mm. Besides, in [5], the “Mi: number of nodules per plant” value stood at 3. For the same molecule, the “Titers of the bacterium” value in test [6] (0.001 μM) worked out at 598 copies per reaction; in test [6] (0.01 μM), 15 copies per reaction; in [6] (1 μM), 0 copies per reaction; in [6] (5 μM), 98 copies per reaction; in test [6] (10 μM), 9751 copies per reaction. Also, the “Pc: number of nodules per plant” value in test [7] worked out at 13. Also, the “Rs-SI: percentage of mortality” value in [8] is 2%. The “Bc-Nt: mean of the diameter of the lesion” value (shortened to “Bc-Nt: mean”) in [9] came to 2.0 mm. Also, the “As-SI: percentage of leaves with the disease symptoms” value (“As-SI: percentage of leaves” for short) in [10] was found to be 2%. Further, the “Pp-Nt: percentage of mortality” value in [11] is 2%. The “Levels of the bacterium, application once a month compared to twice a month” value in test [12] is “reduced significantly”. Besides, the Bacterial reduction entry in test [12] (once and twice a month) is reported as “bacterial reduction was observed in both tested variants”. Besides, in [13], the “Rs: number of nodules per plant” value was 24.

On to `O=C(c1ccc(OC2CCN(CC(O)CO)CC2)cc1)N1CCCC1` (stereo not drawn) [IVI, 3-(4-{4-[(pyrrolidin-1-yl)carbonyl]phenoxy}piperidin-1-yl)propane-1,2-diol], for which the “Rs-Nt: percentage of mortality” value in test [1] is recorded as 0%. For the same molecule, in [2], the “Bc-SI: mean” value worked out at 0.8 mm. Also, in [3], the “N-Nt: percentage of mortality” value stood at 0%. Besides, the “Bc-At: mean” value in test [4] is recorded as 1.2 mm. The “Mi: number of nodules per plant” value in test [5] is listed as 0. In addition, the “Titers of the bacterium” value was 456 copies per reaction in test [6] (0.001 μM); 4 copies per reaction in [6] (0.01 μM); 2 copies per reaction in test [6] (1 μM); 56 copies per reaction in [6] (5 μM); 2547 copies per reaction in test [6] (10 μM). Further, the “Pc: number of nodules per plant” value in test [7] came to 0. Besides, in test [8], the “Rs-SI: percentage of mortality” value is 1%. Besides, the “Bc-Nt: mean” value in [9] stood at 0.3 mm. For the same molecule, the “As-SI: percentage of leaves” value in [10] was 7%. The “Pp-Nt: percentage of mortality” value in test [11] amounted to 3%. The “Rs: number of nodules per plant” value in test [13] was determined as 3.

Consider `Cc1nc(N2CCN(C3CCCC3)CC2)ncc1C(=O)N1CC2CC(O)C(O)CC2C1` (stereo not drawn) [IIIH, 2-{[2-(4-cyclopentylpiperazin-1-yl)-4-methylpyrimidin-5-yl]carbonyl)-octahydro-1H-isoindole-5,6-diol], for which the “Rs-Nt: percentage of mortality” value in test [1] worked out at 2%. Also, in [2], the “Bc-SI: mean” value was 1.2 mm. The “N-Nt: percentage of mortality” value in test [3] was 1%. The “Bc-At: mean” value in test [4] is listed as 0.7 mm. The “Mi: number of nodules per plant” value in [5] is 2. The “Titers of the bacterium” value in [6] (0.001 μM) was 456 copies per reaction; in [6] (0.01 μM), 15 copies per reaction; in test [6] (1 μM), 6 copies per reaction; in test [6] (5 μM) it was 56 copies per reaction; in test [6] (10 μM), 3657 copies per reaction. Further, in test [7], the “Pc: number of nodules per plant” value is 16. The “Rs-SI: percentage of mortality” value in test [8] was 3%. The “Bc-Nt: mean” value in [9] is 0.9 mm. In addition, the “As-SI: percentage of leaves” value in test [10] is 1%. In test [11], the “Pp-Nt: percentage of mortality” value was 1%. In addition, the “Rs: number of nodules per plant” value in test [13] was determined as 14.

Consider `CC1CCN(C(=O)c2ccc(OC3CCN(CC(O)C(C)O)CC3)cc2)C1` (stereo not drawn) [IVB, 1-(4-{4-[(3-methylpyrrolidin-1-yl)carbonyl]phenoxy}piperidin-1-yl)butane-2,3-diol], for which, in test [1], the “Rs-Nt: percentage of mortality” value worked out at 0%. Moreover, the “Bc-SI: mean” value in [2] is 1.2 mm. Also, the “N-Nt: percentage of mortality” value in test [3] was found to be 0%. Further, the “Bc-At: mean” value in test [4] is reported as 0.7 mm. The “Mi: number of nodules per plant” value in test [5] is reported as 0. The “Titers of the bacterium” value in test [6] (0.001 μM) stood at 432 copies per reaction; in test [6] (0.01 μM), 8 copies per reaction; in test [6] (1 μM) it was 4 copies per reaction; in test [6] (5 μM), 43 copies per reaction; in test [6] (10 μM), 3574 copies per reaction. Also, in test [7], the “Pc: number of nodules per plant” value is on record as 0. Besides, in test [8], the “Rs-SI: percentage of mortality” value came to 1%. Also, in [9], the “Bc-Nt: mean” value worked out at 0.9 mm. Further, in test [10], the “As-SI: percentage of leaves” value is given as 7%. The “Pp-Nt: percentage of mortality” value in test [11] is 3%. The “Rs: number of nodules per plant” value in test [13] came to 3.

On to `Cc1c(CCC(=O)NCC(O)CO)c(=O)oc2cc3occ(-c4ccccc4)c3cc12` (stereo not drawn) [II, N-(2,3-dihydroxypropyl)-3-{4-methyl-2-oxo-6-phenyl-2H-furo[3,2-g]chromen-3-yl}propanamide], for which the “Rs-Nt: percentage of mortality” value in test [1] came to 3%. Besides, the “Bc-SI: mean” value in [2] is recorded as 0.8 mm. Further, in test [3], the “N-Nt: percentage of mortality” value is given as 1%. In addition, the “Bc-At: mean” value in [4] is 0.5 mm. Also, the “Mi: number of nodules per plant” value in test [5] worked out at 3. Further, the “Titers of the bacterium” value in test [6] (0.001 μM) was 756 copies per reaction; in [6] (0.01 μM), 14 copies per reaction; in [6] (1 μM), 14 copies per reaction; in [6] (5 μM) it was 76 copies per reaction; in [6] (10 μM), 8420 copies per reaction. For the same molecule, the “Pc: number of nodules per plant” value in test [7] was determined as 13. The “Rs-SI: percentage of mortality” value in test [8] worked out at 2%. Besides, in test [9], the “Bc-Nt: mean” value is 0.9 mm. For the same molecule, in test [10], the “As-SI: percentage of leaves” value was found to be 2%. The “Pp-Nt: percentage of mortality” value in [11] came out at 2%. Further, the “Rs: number of nodules per plant” value in test [13] is 2.

With `CC(O)C(O)CN1CCC(Oc2ccc(C(=O)N3CCC(C4CCCCC4)C3)cc2)CC1` (stereo not drawn) [IVF, 1-(4-{4-[(3-cyclohexylpyrrolidin-1-yl)carbonyl]phenoxy}piperidin-1-yl)butane-2,3-diol], the “Rs-Nt: percentage of mortality” value in test [1] was 0%. Moreover, the “Bc-SI: mean” value in test [2] was 2.5 mm. In addition, in test [3], the “N-Nt: percentage of mortality” value worked out at 1%. The “Bc-At: mean” value in test [4] worked out at 1.5 mm. Besides, the “Mi: number of nodules per plant” value in test [5] stood at 0. For the same molecule, the “Titers of the bacterium” value in [6] (0.001 μM) stood at 657 copies per reaction; in test [6] (0.01 μM), 0 copies per reaction; in test [6] (1 μM), 0 copies per reaction; in test [6] (5 μM), 67 copies per reaction; in test [6] (10 μM) it was 8654 copies per reaction. Further, the “Pc: number of nodules per plant” value in [7] turned out to be 17. Moreover, in test [8], the “Rs-SI: percentage of mortality” value was 2%. In test [9], the “Bc-Nt: mean” value amounted to 1.5 mm. The “As-SI: percentage of leaves” value in test [10] came to 8%. In addition, the “Pp-Nt: percentage of mortality” value in test [11] is 0%. Besides, the “Rs: number of nodules per plant” value in test [13] turned out to be 0.

On to `CC1=COC2c3cc(CC(=O)NCC(O)CO)c(=O)oc3C=CC12` (stereo not drawn) [IIA, N-(2,3-dihydroxypropyl)-2-{5-methyl-11-oxo-3,10-dioxatricyclo[7.4.0.0^{2,6}]trideca-1(9),4,7,12-tetraen-12-yl}acetamide], for which the “Rs-Nt: percentage of mortality” value in [1] is listed as 2%. The “Bc-SI: mean” value in test [2] came to 0.8 mm. The “N-Nt: percentage of mortality” value in test [3] came out at 1%. In addition, the “Bc-At: mean” value in test [4] stood at 0.5 mm. The “Mi: number of nodules per plant” value in [5] came to 2. Further, the “Titers of the bacterium” value stood at 598 copies per reaction in test [6] (0.001 μM); 14 copies per reaction in test [6] (0.01 μM); 0 copies per reaction in test [6] (1 μM); 98 copies per reaction in test [6] (5 μM); 9845 copies per reaction in test [6] (10 μM). Further, the “Pc: number of nodules per plant” value in test [7] is reported as 14. In [8], the “Rs-SI: percentage of mortality” value was found to be 3%. In [9], the “Bc-Nt: mean” value is 0.9 mm. Further, the “As-SI: percentage of leaves” value in test [10] is 1%. For the same molecule, the “Pp-Nt: percentage of mortality” value in test [11] is 1%. The “Rs: number of nodules per plant” value in test [13] was found to be 17.
